According to patent US9359297B2, “Spirolactam derivatives and uses of same” (H. Lundbeck A/S, priority 2009, dated 2016):

Biological target: T1, human metabotropic glutamate receptor 5 (hmGluR5) (Homo sapiens, UniProt P41594)
T1 construct: expressed in transfected cells
Assay: Calcium mobilization (FLIPR) assay for negative allosteric modulation, EC80 glutamate, hmGluR5 in HEK 293
Type: cell-based
Details: HEK293; hmGluR5, inhibition of EC80 glutamate response; read-out: FLIPR maximum inhibition
Experimental: The cDNA for rat metabotropic glutamate receptor 5 (rmGluR5) and the cDNA for human metabotropic glutamate receptor 5 (hmGluR5) were generous gifts from S. Nakanishi (Kyoto University, Kyoto, Japan). The rmGluR5 or hmGluR5 was stably expressed in a HEK 293 cell line and grown in Dulbecco's Modified Eagle Medium (DMEM) (Invitrogen, Carlsbad, Calif.) with supplements (10% bovine calf serum, 4 mM glutamine, 100 units/mL penicillin, 100 μg/mL streptomycin and 0.75 mM G1418) at 37° C., 5% CO2. Twenty-four hours prior to assay, cells were seeded into 384-well black wall microtiter plates coated with poly-D-lysine. Just prior to assay, media was aspirated and cells dye-loaded (25 μL/well) with 3 μM Fluo-4/0.01% pluronic acid in assay buffer (Hank's Balanced Saline Solution (HBSS)): 150 mM NaCl, 5 mM KCl, 1 mM CaCl2, 1 mM MgCl2, plus 20 mM N-2-Hydroxyethylpiperazine-N′-2-ethanesulfonic acid (HEPES), pH 7.4, 0.1% bovine serum albumin (BSA) and 2.5 mM probenicid) for 1 hour in 5% CO2 at 37° C. After excess dye was discarded, cells were washed in assay buffer and layered with a final volume equal to 30 μL/well. Basal fluorescence is monitored in a fluorometric imaging plate reader (FLIPR) (Molecular Devices, Sunnyvale, Calif.) with an excitation wavelength of 488 nm and an emission range of 500 to 560 nm. Laser excitation energy was adjusted so that basal fluorescence readings were approximately 10,000 relative fluorescent units. Cells were stimulated with an EC20 or an EC80 concentration of glutamate in the presence of a compound to be tested, both diluted in assay buffer, and relative fluorescent units were measured at defined intervals (exposure=0.6 sec) over a 3 min period at room temperature. Basal readings derived from negative controls were subtracted from all samples. Maximum change in fluorescence was calculated for each well. Concentration-response curves derived from the maximum change in fluorescence were analyzed by nonlinear regression (Hill equation). A negative modulator can be identified from these concentration-response curves if a compound produces a concentration dependent inhibition of the EC80 glutamate response.

T1 sequence (P41594 21-1212): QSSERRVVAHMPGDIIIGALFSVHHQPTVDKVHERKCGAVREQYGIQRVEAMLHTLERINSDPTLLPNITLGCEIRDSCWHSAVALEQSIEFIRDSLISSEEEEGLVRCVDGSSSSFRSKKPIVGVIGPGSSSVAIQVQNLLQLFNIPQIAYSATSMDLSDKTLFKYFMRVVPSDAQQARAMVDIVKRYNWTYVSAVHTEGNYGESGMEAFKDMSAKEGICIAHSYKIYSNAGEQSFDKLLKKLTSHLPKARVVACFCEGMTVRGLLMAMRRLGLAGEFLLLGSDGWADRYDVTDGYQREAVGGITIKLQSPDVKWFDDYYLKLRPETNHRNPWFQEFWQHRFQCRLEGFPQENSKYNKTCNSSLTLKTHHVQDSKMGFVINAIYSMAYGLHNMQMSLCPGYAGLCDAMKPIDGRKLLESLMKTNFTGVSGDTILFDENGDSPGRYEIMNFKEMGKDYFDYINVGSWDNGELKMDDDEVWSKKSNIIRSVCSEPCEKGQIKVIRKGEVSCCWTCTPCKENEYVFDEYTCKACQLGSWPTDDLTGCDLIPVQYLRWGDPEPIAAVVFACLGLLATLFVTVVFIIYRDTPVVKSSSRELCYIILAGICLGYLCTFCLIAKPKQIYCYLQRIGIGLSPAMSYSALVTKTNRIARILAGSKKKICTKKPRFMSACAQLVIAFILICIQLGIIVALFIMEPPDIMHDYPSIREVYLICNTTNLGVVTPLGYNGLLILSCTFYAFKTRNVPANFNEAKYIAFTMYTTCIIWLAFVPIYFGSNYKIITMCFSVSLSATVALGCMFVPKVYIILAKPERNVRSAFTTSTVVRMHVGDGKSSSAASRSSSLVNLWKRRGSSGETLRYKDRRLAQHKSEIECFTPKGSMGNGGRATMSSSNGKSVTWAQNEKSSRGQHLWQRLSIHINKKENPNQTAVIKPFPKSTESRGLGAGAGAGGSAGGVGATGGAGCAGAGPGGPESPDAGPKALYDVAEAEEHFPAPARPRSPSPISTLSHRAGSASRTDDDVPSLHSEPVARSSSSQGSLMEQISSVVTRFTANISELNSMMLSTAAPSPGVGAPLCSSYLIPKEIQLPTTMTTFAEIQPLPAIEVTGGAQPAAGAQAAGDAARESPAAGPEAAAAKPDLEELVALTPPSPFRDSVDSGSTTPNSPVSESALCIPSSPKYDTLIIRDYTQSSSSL

Row | Emax [%] | SMILES
1 | 47 to 93 | Cc1cccc(C(=O)N[C@@H]2CC(F)(F)C[C@@]3(CCN(c4ccnc(C)n4)C3=O)C2)n1 (relative stereo) [Example 108, cis-6-Methyl-pyridine-2-carboxylic acid [9,9-difluoro-2-(2-methyl-pyrimidin-4-yl)-1-oxo-2-aza-spiro[4.5]dec-7-yl]-amide]
2 | 47 to 93 | O=C(N[C@@H]1CC(F)(F)C[C@@]2(CCN(c3ccc(F)cn3)C2=O)C1)c1ccccn1 (relative stereo) [Example 111, cis-Pyridine-2-carboxylic acid [9,9-difluoro-2-(5-fluoro-pyridin-2-yl)-1-oxo-2-aza-spiro[4.5]dec-7-yl]-amide]
3 | 47 to 93 | Cc1nccc(N2CC[C@]3(C[C@H](NC(=O)c4ccccn4)CC(F)(F)C3)C2=O)n1 (relative stereo) [Example 112, cis-Pyridine-2-carboxylic acid [9,9-difluoro-2-(2-methyl-pyrimidin-4-yl)-1-oxo-2-aza-spiro[4.5]dec-7-yl]-amide]
4 | 47 to 93 | Cc1nccc(C(=O)N[C@@H]2CC(=O)C[C@@]3(CCN(c4cc(F)cc(F)c4)C3=O)C2)n1 (relative stereo) [Example 115, cis-2-Methyl-pyrimidine-4-carboxylic acid [2-(3,5-difluoro-phenyl)-1,9-dioxo-2-aza-spiro[4.5]dec-7-yl]-amide]
5 | 47 to 93 | Cc1nccc(C(=O)N[C@@H]2C[C@H](O)C[C@@]3(CCN(c4cc(F)cc(F)c4)C3=O)C2)n1 (relative stereo) [Example 116, cis-2-Methyl-pyrimidine-4-carboxylic acid [2-(3,5-difluorphenyl)-9-hydroxy-1-oxo-2-aza-spiro[4.5]dec-7-yl]-amide]
6 | 47 to 93 | Cc1nccc(C(=O)N[C@@H]2C[C@@H](O)C[C@@]3(CCN(c4cc(F)cc(F)c4)C3=O)C2)n1 (relative stereo) [Example 117, trans-2-Methyl-pyrimidine-4-carboxylic acid [2-(3,5-difluorphenyl)-9-hydroxy-1-oxo-2-aza-spiro[4.5]dec-7-yl]-amide]
7 | 47 to 93 | Cc1nccc(C(=O)N[C@@H]2C[C@@H](F)C[C@@]3(CCN(c4cc(F)cc(F)c4)C3=O)C2)n1 (relative stereo) [Example 122, trans-2-Methyl-pyrimidine-4-carboxylic acid [2-(3,5-difluoro-phenyl)-9-fluoro-1-oxo-2-aza-spiro[4.5]dec-7-yl]-amide]
8 | 47 to 93 | O=C1C[C@@H](NC(=O)c2cccc(F)c2)C[C@]2(CCN(c3cccc(F)c3)C2=O)C1 (relative stereo) [Example 123, cis-3-Fluoro-N-[2-(3-fluoro-phenyl)-1,9-dioxo-2-aza-spiro[4.5]dec-7-yl]-benzamide]
9 | 47 to 93 | Cc1cccc(C(=O)N[C@@H]2CC(=O)C[C@@]3(CCN(c4cccc(F)c4)C3=O)C2)n1 (relative stereo) [Example 124, cis-6-Methyl-pyridine-2-carboxylic acid [2-(3-fluoro-phenyl)-1,9-dioxo-2-aza-spiro[4.5]dec-7-yl]-amide]
10 | 47 to 93 | O=C(N[C@@H]1C[C@@H](O)C[C@@]2(CCN(c3cccc(F)c3)C2=O)C1)c1cccc(F)c1 (relative stereo) [Example 125, trans-3-Fluoro-N-[2-(3-fluoro-phenyl)-9-hydroxy-1-oxo-2-aza-spiro[4.5]dec-7-yl]-benzamide]
11 | 47 to 93 | Cc1cccc(C(=O)N[C@@H]2C[C@@H](O)C[C@@]3(CCN(c4cccc(F)c4)C3=O)C2)n1 (relative stereo) [Example 126, trans-6-Methyl-pyridine-2-carboxylic acid [2-(3-fluoro-phenyl)-9-hydroxy-1-oxo-2-aza-spiro[4.5]dec-7-yl]-amide]
12 | 47 to 93 | COc1cccc(N2CC[C@]3(CCC[C@H](NC(=O)c4cccc(F)c4)C3)C2=O)c1 (relative stereo) [Example 130, cis-3-Fluoro--N-[-2-(3-methoxy-phenyl)-1-oxo-2-aza-spiro[4.5]dec-7-yl]-benzamide]
13 | 47 to 93 | O=C(N[C@H]1CCC[C@]2(CCN(c3cccc(O)c3)C2=O)C1)c1cccc(F)c1 (relative stereo) [Example 131, cis-3-Fluoro-N-[2-(3-hydroxy-phenyl)-1-oxo-2-aza-spiro[4.5]dec-7-yl]-benzamide]
14 | 47 to 93 | COc1ccc(N2CC[C@]3(CCC[C@H](NC(=O)c4cccc(F)c4)C3)C2=O)cc1 (relative stereo) [Example 133]
15 | 47 to 93 | O=C(N[C@H]1CCC[C@]2(CCN(c3cccc(CCCN4CCOCC4)c3)C2=O)C1)c1cccc(F)c1 (relative stereo) [Example 134, cis-3-Fluoro-N-{2-[3-(3-morpholin-4-yl-propyl)-phenyl]-1-oxo-2-aza-spiro[4.5]dec-7-yl}-benzamide]
16 | 47 to 93 | COc1cc(F)cc(N2CC[C@]3(CCC[C@H](NC(=O)c4cccc(F)c4)C3)C2=O)c1 (relative stereo) [Example 135, cis-3-Fluoro-N-[2-(3-fluoro-5-methoxy-phenyl)-1-oxo-2-aza-spiro[4.5]dec-7-yl]-benzamide]
17 | 47 to 93 | O=C(N[C@H]1CCC[C@]2(CCN(c3cccc(OCC(=O)N4CCCC4)c3)C2=O)C1)c1cccc(F)c1 (relative stereo) [Example 136, cis-3-Fluoro-N-{1-oxo-2-[3-(2-oxo-2-pyrrolidin-1-yl-ethoxy)-phenyl]-2-aza-spiro[4.5]dec-7-yl}-benzamide]
18 | 47 to 93 | O=C(N[C@H]1CCC[C@]2(CCN(c3cccc(F)c3)C2=O)C1)c1nccs1 (relative stereo) [Example 137, cis-Thiazole-2-carboxylic acid [2-(3-fluoro-phenyl)-1-oxo-2-aza-spiro[4.5]dec-7-yl]-amide]
19 | 47 to 93 | CN(C)c1ccc(N2CC[C@]3(CCC[C@H](NC(=O)c4cccc(F)c4)C3)C2=O)cc1 (relative stereo) [Example 138, cis-N-[2-(4-Dimethylamino-phenyl)-1-oxo-2-aza-spiro[4.5]dec-7-yl]-3-fluoro-benzamide]
20 | 47 to 93 | O=C(N[C@H]1CCC[C@]2(CCN(c3nccs3)C2=O)C1)c1cccc(F)c1 (relative stereo) [Example 139, cis-3-Fluoro-N-(1-oxo-2-thiazol-2-yl-2-aza-spiro[4.5]dec-7-yl)-benzamide]
21 | 47 to 93 | Cc1nccc(N2CC[C@]3(CCC[C@H](NC(=O)c4nccs4)C3)C2=O)n1 (relative stereo) [Example 140]
22 | 47 to 93 | COc1cc(F)cc(N2CC[C@@]3(CCC[C@@H](NC(=O)c4ccnc(C)n4)C3)C2=O)c1 (relative stereo) [Example 141, cis-2-Methyl-pyrimidine-4-carboxylic acid [2-(3-fluoro-5-methoxy-phenyl)-1-oxo-2-aza-spiro[4.5]dec-7-yl]-amide]
23 | 47 to 93 | N#Cc1cc(F)cc(N2CC[C@@]3(CCC[C@@H](NC(=O)c4cccc(F)c4)C3)C2=O)c1 (relative stereo) [Example 142, cis-N-[2-(3-Cyano-5-fluoro-phenyl)-1-oxo-2-aza-spiro[4.5]dec-7-yl]-3-fluoro-benzamide]
24 | 47 to 93 | O=C(N[C@@H]1CCC[C@@]2(CCN(c3cc(F)cc(F)c3)C2=O)C1)c1nccs1 (relative stereo) [Example 143, cis-Thiazole-2-carboxylic acid [2-(3,5-difluoro-phenyl)-1-oxo-2-aza-spiro[4.5]dec-7-yl]-amide]
25 | 47 to 93 | Cc1nc(C(=O)N[C@@H]2CCC[C@@]3(CCN(c4cc(F)cc(F)c4)C3=O)C2)cs1 (relative stereo) [Example 144, cis-2-Methyl-thiazole-4-carboxylic acid [2-(3,5-difluoro-phenyl)-1-oxo-2-aza-spiro[4.5]dec-7-yl]-amide]
26 | 47 to 93 | CCCCC(=O)N[C@@H]1CCC[C@@]2(CCN(c3cc(F)cc(F)c3)C2=O)C1 (relative stereo) [Example 145, cis-Pentanoic acid [2-(3,5-difluoro-phenyl)-1-oxo-2-aza-spiro[4.5]dec-7-yl]-amide]
27 | 47 to 93 | CCCC(=O)N[C@@H]1CCC[C@@]2(CCN(c3cc(F)cc(F)c3)C2=O)C1 (relative stereo) [Example 146, cis-N-[2-(3,5-Difluoro-phenyl)-1-oxo-2-aza-spiro[4.5]dec-7-yl]-butyramide]
28 | 47 to 93 | Cc1nccc(N2CC[C@]3(CCC[C@H](NC(=O)c4ccc(F)cn4)C3)C2=O)n1 (relative stereo) [Example 149]
29 | 47 to 93 | O=C(N[C@H]1CCC[C@]2(CCN(c3ccnc(C(F)(F)F)n3)C2=O)C1)c1cccc(F)c1 (relative stereo) [Example 150, cis-3-Fluoro-N-[1-oxo-2-(2-trifluoromethyl-pyrimidin-4-yl)-2-aza-spiro[4.5]dec-7-yl]-benzamide]
